# Laboratory results taken from the supplement of paper PMC11208160.
# Assay: recombinant UMI read abundance after kanamycin selection (control-corrected) (log10(CPM+1)); higher = more efficient recombination; extreme values may be limits of the assay; sequences stand for … in AGTGCAGAGAAAATCGGCCAGTTTTCTCTGCCTGCAGTCCGCATGCCGTGGGACCCCTTGGGTTCTAACCTGTTGCCTAGATTTATGCAGCGGACTGCCTTTCTCCCAAAGTGATAAACCGG…AGGTTGGTTTCACT; site = the 11-nt donor
# Method in brief: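 After plating on IPTG (0.07 mM) plus kanamycin, or unselected, in two replicates, recombinant UMIs were PCR-amplified across the donor–target junction and sequenced. The cells were Escherichia coli co-electroporated with a UMI-tagged donor and donor-binding-loop pair library and a target plasmid with a fixed target and T7-inducible IS621 bridge recombinase. Values are log10(CPM+1), with CPM averaged over replicates and scaled by control-derived factors.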
row,Sequence,recombinant UMI read abundance (log10)
1,GTAGGTACATGGACCGGTTTTCCCGGTAATCCGTATTTGAC (site GTAGGTCCTGT),0
2,GTAGGTACATGGACCGGTTTTCCCGGTAATCCGTATTTGAC (site GTAGGTGCTGT),2.02
3,GTAGGTACATGGACCGGTTTTCCCGGTAATCCGTATTTGAC (site GTAGGTTCTGT),1.76
4,GTAGGTACATGGACCGGTTTTCCCGGTAATCCGTATTTGAC (site GTAGTTACTGT),1.2
5,GTAGGTACATGGACCGGTTTTCCCGGTAATCCGTATTTGAC (site GTATGTACTGT),0.986
6,GTAGGTACATGGACCGGTTTTCCCGGTAATCCGTATTTGAC (site GTCGGTACTGT),1.16
7,GTAGGTACATGGACCGGTTTTCCCGGTAATCCGTATTTGAC (site GTGGGTACTGT),2.19
8,GTAGGTACATGGACCGGTTTTCCCGGTAATCCGTATTTGAC (site GTTGGTACTGT),1.96
9,GTAGGTACATGGACCGGTTTTCCCGGTAATCCGTATTTGAC (site TTAGGTACTGT),1.65
10,GTAGGTACATGGACCGGTTTTCCCGGTAATCCGTATTTGAG (site GTAGGTACTAT),0.994
11,GTAGGTACATGGACCGGTTTTCCCGGTAATCCGTATTTGAG (site GTAGGTACTCT),1.29
12,GTAGGTACATGGACCGGTTTTCCCGGTAATCCGTATTTGAG (site GTAGGTACTGT),1.42
13,GTAGGTACATGGACCGGTTTTCCCGGTAATCCGTATTTGAG (site GTAGGTACTTT),0.806
14,GTAGGTACATGGACCGGTTTTCCCGGTAATCCGTATTTGAT (site GTAGGTACTAT),1.87
15,GTAGGTACATGGACCGGTTTTCCCGGTAATCCGTATTTGAT (site GTAGGTACTCT),0.18
16,GTAGGTACATGGACCGGTTTTCCCGGTAATCCGTATTTGAT (site GTAGGTACTGT),0.596
17,GTAGGTACATGGACCGGTTTTCCCGGTAATCCGTATTTGAT (site GTAGGTACTTT),0.00769
18,GTAGTACCATGGACCGGTTTTCCCGGTAATCCGTATTTGAC (site CTAGTATCTGT),0
19,GTAGTACCATGGACCGGTTTTCCCGGTAATCCGTATTTGAC (site GTAGTACCTGT),0

row,Sequence,recombinant UMI read abundance (log10)
1,GTAGTCACATGGACCGGTTTTCCCGGTAATCCGTATTTGCG (site GTAGTCACTCG),2.1
2,GTAGTCACATGGACCGGTTTTCCCGGTAATCCGTATTTGCG (site GTAGTCCCTCG),0.0197
3,GTAGTCACATGGACCGGTTTTCCCGGTAATCCGTATTTGCG (site GTAGTCGCTCG),1.67
4,GTAGTCACATGGACCGGTTTTCCCGGTAATCCGTATTTGCG (site GTAGTCTCTCG),2.62
5,GTAGTGGCATGGACCGGTTTTCCCGGTAATCCGTATTTGCG (site GTAGTAGCTCG),2.37
6,GTAGTGGCATGGACCGGTTTTCCCGGTAATCCGTATTTGCG (site GTAGTCGCTCG),1.25
7,GTAGTGGCATGGACCGGTTTTCCCGGTAATCCGTATTTGCG (site GTAGTGGCTCG),2.18
8,GTAGTGGCATGGACCGGTTTTCCCGGTAATCCGTATTTGCG (site GTAGTTGCTCG),2.06
9,GTATACCCATGGACCGGTTTTCCCGGTAATCCGTATTTGTC (site GTATACCCTGA),1.03
10,GTATAGTCATGGACCGGTTTTCCCGGTAATCCGTATTTGGT (site GTATAGTCTAC),2.67
11,GTATCGTCATGGACCGGTTTTCCCGGTAATCCGTATTTGTC (site GTATCGTCTGA),3.21
12,GTATGACCATGGACCGGTTTTCCCGGTAATCCGTATTTGGC (site GTATGACCTGC),0
13,GTATGCACATGGACCGGTTTTCCCGGTAATCCGTATTTGAA (site GTATGCACTTA),0.217
14,GTATGCACATGGACCGGTTTTCCCGGTAATCCGTATTTGAA (site GTATGCACTTC),0.0775
15,GTATGCACATGGACCGGTTTTCCCGGTAATCCGTATTTGAA (site GTATGCACTTG),0.0145
16,GTATGCACATGGACCGGTTTTCCCGGTAATCCGTATTTGAA (site GTATGCACTTT),1.53
17,GTATGCGCATGGACCGGTTTTCCCGGTAATCCGTATTTGAA (site GTATGCGCTTT),1.66
18,GTATGCGCATGGACCGGTTTTCCCGGTAATCCGTATTTGTA (site GTATGCACTTA),1.8
19,GTATGCGCATGGACCGGTTTTCCCGGTAATCCGTATTTGTA (site GTATGCCCTTA),0.772

row,Sequence,recombinant UMI read abundance (log10)
1,GTATGCGCATGGACCGGTTTTCCCGGTAATCCGTATTTGTA (site GTATGCGCTTA),2.35
2,GTATGCGCATGGACCGGTTTTCCCGGTAATCCGTATTTGTA (site GTATGCTCTTA),1.33
3,GTATGGACATGGACCGGTTTTCCCGGTAATCCGTATTTGTA (site GTATGAACTTA),2.39
4,GTATGGACATGGACCGGTTTTCCCGGTAATCCGTATTTGTA (site GTATGCACTTA),0.0152
5,GTATGGACATGGACCGGTTTTCCCGGTAATCCGTATTTGTA (site GTATGGACTTA),1.9
6,GTATGGACATGGACCGGTTTTCCCGGTAATCCGTATTTGTA (site GTATGTACTTA),0.44
7,GTCACAACATGGACCGGTTTTCCCGGTAATCCGTATTTGAC (site GTCACAACTGT),1.36
8,GTCACGACATGGACCGGTTTTCCCGGTAATCCGTATTTGAC (site GTCACGACTGT),1.96
9,GTCAGAACATGGACCGGTTTTCCCGGTAATCCGTATTTGAT (site GTCAGAACTAT),2.16
10,GTCAGACCATGGACCGGTTTTCCCGGTAATCCGTATTTGGT (site GTCAGACCTAC),0
11,GTCCAAGCATGGACCGGTTTTCCCGGTAATCCGTATTTGAG (site ATCCAAGCTCT),0.677
12,GTCCAAGCATGGACCGGTTTTCCCGGTAATCCGTATTTGAG (site CTCCAAGCTCT),0
13,GTCCAAGCATGGACCGGTTTTCCCGGTAATCCGTATTTGAG (site GTCCAAGCTCT),0.618
14,GTCCAAGCATGGACCGGTTTTCCCGGTAATCCGTATTTGAG (site TTCCAAGCTCT),0.088
15,GTCCACCCATGGACCGGTTTTCCCGGTAATCCGTATTTGTT (site GACCACCCTAA),0.0143
16,GTCCACCCATGGACCGGTTTTCCCGGTAATCCGTATTTGTT (site GCCCACCCTAA),0.0129
17,GTCCACCCATGGACCGGTTTTCCCGGTAATCCGTATTTGTT (site GGCCACCCTAA),0.0212
18,GTCCACCCATGGACCGGTTTTCCCGGTAATCCGTATTTGTT (site GTCCACCCTAA),0.0175
19,GTCCATTCATGGACCGGTTTTCCCGGTAATCCGTATTTGCT (site GTCCATTCTAG),0.671
